The values below come from patent US20130131002A1, “COMPOSITIONS AND METHODS FOR TREATING PULMONARY HYPERTENSION” (Georgetown University, priority 2010, published 2013).

Entries after “also recorded” stand apart in the source; their conditions may differ.

What all share (type): in vivo, Sprague Dawley rats
In data set [1] the test system is rats with hypoxia-induced pulmonary hypertension. In words: Pulmonary arterial wall thickening assessed histologically (H&E stained lungs) in chronic hypoxia rats. The settings on record: vs saline. The text has this:
(§1) All animal studies were approved by the Georgetown University Animal Care and Use Committee. Adult Sprague Dawley rats (200-250 g) were placed in specialized cages connected to the OxyCycler Oxygen Profile Controller (BioSpherix, Redfield, N.Y.) which precisely controls the oxygen and nitrogen contents. Animals were subjected to hypoxic gas (10% O2, balance N2). […] Normoxia control animals are subjected to the same conditions except that they were exposed to ambient O2. All animals were fed normal rat chow during treatment and used in accordance with institutional guidelines.
(§2) After 2-weeks of hypoxia or normoxia treatment, animals were injected intraperitoneally with saline or daunorubicin (20 mg/kg body weight; Sigma-Aldrich, St. Louise, Mo.). After injection, animals were placed back in hypoxia or normoxia condition for 3 days.
(§3) As an indication of the development of pulmonary hypertension, right ventricular hypertrophy was estimated by calculating RV/(LV+S), where RV is the mass of right ventricle, LV is the mass of left ventricle and S is the mass of septum. Right ventricular pressure was measured by inserting a 1.4 F Millar Catheter into the right ventricle at the base of apex using PowerLab 8/30 High Performance Data Acquisition System with Chart Pro in anesthetized and ventilated animals. Pulmonary arterial wall thickening was assessed histologically in hematoxylin and eosin stained lungs. Apoptosis of pulmonary vascular cells was monitored using terminal deoxynucleotidyl transferase dUTP nick end labeling (TUNEL) method.
(§4) Comparisons between the 2 groups were analyzed using a two-tailed Student's t test, and comparisons between 3 or more groups were analyzed by ANOVA with a Student-Newman-Keuls post-hoc test. p<0.05 was considered to be significant. […]
(§5) Comparisons between the 2 groups (2 mg/kg vs. control, or 5 mg/kg vs. control) were analyzed using a two-tailed Student's t test, and comparisons between 3 or more groups were analyzed by ANOVA with a Student-Newman-Keuls post-hoc test. p<0.05 was considered to be significant.

Data set [2] concerns normal animals without pulmonary hypertension. Briefly: Pulmonary vascular wall thickness (H&E stained lungs) in normoxia control rats.
Source text: as §1, §2, §3, §4, §5

In data set [3] the test system is pulmonary artery smooth muscle cells. In words: Apoptosis of pulmonary vascular cells by TUNEL method in lungs of treated rats. The settings on record: daunorubicin 20 mg/kg i.p.
Source text: All animal studies were approved by the Georgetown University Animal Care and Use Committee. Adult Sprague Dawley rats (200-250 g) were placed in specialized cages connected to the OxyCycler Oxygen Profile Controller (BioSpherix, Redfield, N.Y.) which precisely controls the oxygen and nitrogen contents. Animals were subjected to hypoxic gas (10% O2, balance N2). […] Normoxia control animals are subjected to the same conditions except that they were exposed to ambient O2. All animals were fed normal rat chow during treatment and used in accordance with institutional guidelines. […]
as §3

Data set [4] can be described thus: Overall body weight of treated animals. The settings on record: lower doses of daunorubicin (2 mg/kg and 5 mg/kg i.p.).

Take `COc1cccc2c1C(=O)c1c(O)c3c(c(O)c1C2=O)C[C@@](O)(C(C)=O)C[C@@H]3O[C@H]1C[C@H](N)[C@H](O)[C@H](C)O1` [daunorubicin]: the “hypoxia-induced pulmonary vascular wall thickening” value in data set [1] (daunorubicin 2 mg/kg i.p. after 2 weeks hypoxia) was “significantly reducing hypoxia-induced wall thickening; also recorded: significantly reduced hypoxia-induced wall thickening”; in data set [1] (daunorubicin 5 mg/kg i.p. after 2 weeks hypoxia), “significantly reducing hypoxia-induced wall thickening; also recorded: significantly reduced hypoxia-induced wall thickening”; in data set [1] (daunorubicin 20 mg/kg i.p. after 2 weeks 10% O2 hypoxia, then 3 more days hypoxia, P<0.05), “reduced thickening of pulmonary vascular walls; also recorded: significantly reduced this hypoxia-induced wall thickening”. In addition, the “thickness of the vascular walls in normal animals” value in data set [2] (daunorubicin 2 mg/kg i.p.), in data set [2] (daunorubicin 5 mg/kg i.p.) and in data set [2] (daunorubicin 20 mg/kg i.p.) was “did not affect the thickness of the vascular walls” in each case. In addition, in data set [3] (hypoxia-exposed rats, saline controls showed none), the “TUNEL-positive (apoptotic) cells in pulmonary vascular walls” value is “induction of apoptosis in pulmonary vascular walls; also recorded: presented TUNEL-positive cells”. Moreover, in data set [3] (hypoxia rats (FIG. 3A) vs normoxia rats (FIG. 3B)), the “selectivity of apoptosis induction: thickened vs normal pulmonary vessels” value was “can selectively kill pulmonary artery smooth muscle cells involved in thickened vascular walls”. Also, the “overall body weight of the animals” value in data set [4] is “not significantly affecting the overall body weight; also recorded: do not significantly impact the overall body weight”.
